Columns and labels:
Format in all cases: cell-based
[1] = target: proteins of U3A human fibrosarcoma cells (4462 proteins detected) (Homo sapiens, UniProt A0MZ66); settings: protein KIAA1598; U3A, 10 μM, 2 h
[2] = target: proteins of U3A human fibrosarcoma cells (4462 proteins detected) (Homo sapiens, UniProt O15294); settings: protein OGT; U3A cells
[3] = target: proteins of U3A human fibrosarcoma cells (4462 proteins detected) (Homo sapiens, UniProt O60462); settings: protein NRP2; soluble abundance after heat, U3A cells
[4] = target: proteins of U3A human fibrosarcoma cells (4462 proteins detected) (Homo sapiens, UniProt O75792); settings: protein RNASEH2A; U3A cells
[5] = target: proteins of U3A human fibrosarcoma cells (4462 proteins detected) (Homo sapiens, UniProt P11388); settings: protein TOP2A; U3A cells
[6] = target: proteins of U3A human fibrosarcoma cells (4462 proteins detected) (Homo sapiens, UniProt P13489); settings: protein RNH1; U3A cells
[7] = target: proteins of U3A human fibrosarcoma cells (4462 proteins detected) (Homo sapiens, UniProt P18206); settings: protein VCL; soluble abundance after heat, U3A cells
[8] = target: proteins of U3A human fibrosarcoma cells (4462 proteins detected) (Homo sapiens, UniProt P52747); settings: protein ZNF143; U3A, 10 μM, 2 h
[9] = target: proteins of U3A human fibrosarcoma cells (4462 proteins detected) (Homo sapiens, UniProt P62937); settings: protein PPIA
[10] = target: proteins of U3A human fibrosarcoma cells (4462 proteins detected) (Homo sapiens, UniProt Q06323); settings: protein PSME1; soluble abundance after heat, U3A cells
[11] = target: proteins of U3A human fibrosarcoma cells (4462 proteins detected) (Homo sapiens, UniProt Q12905); settings: protein ILF2; U3A cells
[12] = target: proteins of U3A human fibrosarcoma cells (4462 proteins detected) (Homo sapiens, UniProt Q12979); settings: protein ABR; U3A cells
[13] = target: proteins of U3A human fibrosarcoma cells (4462 proteins detected) (Homo sapiens, UniProt Q16626); settings: protein MEA1, U3A cells
[14] = target: proteins of U3A human fibrosarcoma cells (4462 proteins detected) (Homo sapiens, UniProt Q5SZL2); settings: protein CEP85L; U3A, 10 μM, 2 h
[15] = target: proteins of U3A human fibrosarcoma cells (4462 proteins detected) (Homo sapiens, UniProt Q76FK4); settings: protein NOL8; soluble abundance after heat, U3A cells
[16] = target: proteins of U3A human fibrosarcoma cells (4462 proteins detected) (Homo sapiens, UniProt Q8TAA5); settings: protein GRPEL2; U3A cells
[17] = target: proteins of U3A human fibrosarcoma cells (4462 proteins detected) (Homo sapiens, UniProt Q96A26); settings: protein FAM162A; U3A, 10 μM, 2 h
[18] = target: proteins of U3A human fibrosarcoma cells (4462 proteins detected) (Homo sapiens, UniProt Q96EQ0); settings: protein SGTB, U3A cells
[19] = target: proteins of U3A human fibrosarcoma cells (4462 proteins detected) (Homo sapiens, UniProt Q96P48); settings: protein ARAP1; soluble abundance after heat, U3A cells
[20] = target: proteins of U3A human fibrosarcoma cells (4462 proteins detected) (Homo sapiens, UniProt Q9BX40); settings: protein LSM14B; U3A, 10 μM, 2 h
[21] = target: proteins of U3A human fibrosarcoma cells (4462 proteins detected) (Homo sapiens, UniProt Q9BY89); settings: protein KIAA1671, U3A cells
[22] = target: proteins of U3A human fibrosarcoma cells (4462 proteins detected) (Homo sapiens, UniProt Q9H4E7); settings: protein DEF6; U3A cells
[23] = target: proteins of U3A human fibrosarcoma cells (4462 proteins detected) (Homo sapiens, UniProt Q9NNW5); settings: protein WDR6, U3A cells
[24] = target: proteins of U3A human fibrosarcoma cells (4462 proteins detected) (Homo sapiens, UniProt Q9NY33); settings: protein DPP3, U3A cells
[25] = target: proteins of U3A human fibrosarcoma cells (4462 proteins detected) (Homo sapiens, UniProt Q9UIS9); settings: protein MBD1; U3A cells
[26] = target: proteins of U3A human fibrosarcoma cells (4462 proteins detected) (Homo sapiens, UniProt Q9UJF2); settings: protein RASAL2, U3A cells
[27] = target: proteins of U3A human fibrosarcoma cells (4462 proteins detected) (Homo sapiens, UniProt Q9UK53); settings: protein ING1; U3A, 10 μM, 2 h
[28] = target: proteins of U3A human fibrosarcoma cells (4462 proteins detected) (Homo sapiens, UniProt Q9UMX5); settings: protein NENF, U3A cells
[29] = target: proteins of U3A human fibrosarcoma cells (4462 proteins detected) (Homo sapiens, UniProt Q9Y608); settings: protein LRRFIP2, U3A cells

proteins of U3A human fibrosarcoma cells (4462 proteins detected) (Homo sapiens, UniProt P62937), sequence (P62937 whole entry): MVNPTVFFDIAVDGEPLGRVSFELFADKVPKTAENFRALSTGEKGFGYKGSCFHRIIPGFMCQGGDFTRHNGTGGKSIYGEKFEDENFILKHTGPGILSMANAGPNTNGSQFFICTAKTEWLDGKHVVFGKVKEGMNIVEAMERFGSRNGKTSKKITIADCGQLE
proteins of U3A human fibrosarcoma cells (4462 proteins detected) (Homo sapiens, UniProt O60462), sequence (O60462 21-931): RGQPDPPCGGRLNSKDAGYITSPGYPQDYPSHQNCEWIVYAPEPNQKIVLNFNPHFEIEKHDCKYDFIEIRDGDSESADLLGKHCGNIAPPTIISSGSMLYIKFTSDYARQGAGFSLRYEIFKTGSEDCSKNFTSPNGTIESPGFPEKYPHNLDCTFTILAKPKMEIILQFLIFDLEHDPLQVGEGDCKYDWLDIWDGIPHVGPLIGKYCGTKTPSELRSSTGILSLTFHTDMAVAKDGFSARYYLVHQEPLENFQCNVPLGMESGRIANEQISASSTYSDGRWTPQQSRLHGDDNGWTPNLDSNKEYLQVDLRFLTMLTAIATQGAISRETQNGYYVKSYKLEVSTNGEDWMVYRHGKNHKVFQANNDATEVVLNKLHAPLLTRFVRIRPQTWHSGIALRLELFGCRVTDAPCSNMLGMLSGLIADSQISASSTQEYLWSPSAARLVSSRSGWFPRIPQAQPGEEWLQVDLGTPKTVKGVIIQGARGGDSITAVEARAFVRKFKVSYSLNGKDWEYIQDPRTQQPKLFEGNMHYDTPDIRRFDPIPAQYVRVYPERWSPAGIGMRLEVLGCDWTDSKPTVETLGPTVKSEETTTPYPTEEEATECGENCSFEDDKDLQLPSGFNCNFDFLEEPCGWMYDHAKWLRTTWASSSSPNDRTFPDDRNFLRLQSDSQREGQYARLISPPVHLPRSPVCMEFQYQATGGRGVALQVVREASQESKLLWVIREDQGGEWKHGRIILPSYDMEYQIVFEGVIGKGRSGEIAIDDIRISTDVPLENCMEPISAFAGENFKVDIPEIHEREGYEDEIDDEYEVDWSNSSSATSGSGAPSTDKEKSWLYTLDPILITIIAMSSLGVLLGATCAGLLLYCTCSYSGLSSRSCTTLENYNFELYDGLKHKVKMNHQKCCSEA
proteins of U3A human fibrosarcoma cells (4462 proteins detected) (Homo sapiens, UniProt Q96EQ0), sequence (Q96EQ0 whole entry): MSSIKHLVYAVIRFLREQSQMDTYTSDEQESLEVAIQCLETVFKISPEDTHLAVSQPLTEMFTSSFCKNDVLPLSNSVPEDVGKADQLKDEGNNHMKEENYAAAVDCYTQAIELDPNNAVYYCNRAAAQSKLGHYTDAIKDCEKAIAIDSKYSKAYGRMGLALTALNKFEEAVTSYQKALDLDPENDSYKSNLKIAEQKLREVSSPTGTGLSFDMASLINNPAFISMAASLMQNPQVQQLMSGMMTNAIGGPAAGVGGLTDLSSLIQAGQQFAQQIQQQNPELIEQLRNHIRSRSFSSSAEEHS
proteins of U3A human fibrosarcoma cells (4462 proteins detected) (Homo sapiens, UniProt Q9UMX5), sequence (Q9UMX5 32-172): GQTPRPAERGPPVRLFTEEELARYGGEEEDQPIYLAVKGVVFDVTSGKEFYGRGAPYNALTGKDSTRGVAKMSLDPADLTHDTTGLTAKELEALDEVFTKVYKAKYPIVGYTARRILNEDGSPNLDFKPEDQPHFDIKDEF
proteins of U3A human fibrosarcoma cells (4462 proteins detected) (Homo sapiens, UniProt Q76FK4), sequence (Q76FK4 whole entry): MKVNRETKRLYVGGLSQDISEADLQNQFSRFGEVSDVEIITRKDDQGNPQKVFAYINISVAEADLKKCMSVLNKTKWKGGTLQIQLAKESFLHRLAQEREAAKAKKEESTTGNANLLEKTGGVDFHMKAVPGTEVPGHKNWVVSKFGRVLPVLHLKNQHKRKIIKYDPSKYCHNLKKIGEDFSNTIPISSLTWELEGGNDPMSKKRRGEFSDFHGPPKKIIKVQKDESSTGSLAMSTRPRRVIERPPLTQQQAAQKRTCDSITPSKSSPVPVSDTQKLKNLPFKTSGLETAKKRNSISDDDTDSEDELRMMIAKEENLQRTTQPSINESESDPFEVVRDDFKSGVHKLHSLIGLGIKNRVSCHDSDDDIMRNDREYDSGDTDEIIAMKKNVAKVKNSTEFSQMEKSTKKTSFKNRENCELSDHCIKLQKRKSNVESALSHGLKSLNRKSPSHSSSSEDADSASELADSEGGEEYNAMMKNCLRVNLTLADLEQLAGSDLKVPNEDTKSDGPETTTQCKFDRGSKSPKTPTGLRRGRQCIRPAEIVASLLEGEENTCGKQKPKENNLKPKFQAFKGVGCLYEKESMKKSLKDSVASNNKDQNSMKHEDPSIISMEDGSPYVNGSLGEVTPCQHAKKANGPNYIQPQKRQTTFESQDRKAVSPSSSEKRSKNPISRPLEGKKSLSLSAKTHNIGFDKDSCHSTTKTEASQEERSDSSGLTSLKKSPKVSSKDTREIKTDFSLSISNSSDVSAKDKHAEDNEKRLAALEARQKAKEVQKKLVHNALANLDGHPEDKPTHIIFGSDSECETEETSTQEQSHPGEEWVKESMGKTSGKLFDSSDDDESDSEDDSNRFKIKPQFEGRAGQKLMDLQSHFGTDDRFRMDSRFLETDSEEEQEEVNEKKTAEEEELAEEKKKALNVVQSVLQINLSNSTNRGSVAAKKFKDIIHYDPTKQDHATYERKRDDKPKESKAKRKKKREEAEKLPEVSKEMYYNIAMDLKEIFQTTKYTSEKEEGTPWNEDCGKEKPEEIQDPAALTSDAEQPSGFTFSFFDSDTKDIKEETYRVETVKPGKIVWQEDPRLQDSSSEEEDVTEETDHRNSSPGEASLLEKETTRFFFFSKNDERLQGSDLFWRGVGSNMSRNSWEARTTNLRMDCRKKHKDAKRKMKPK
proteins of U3A human fibrosarcoma cells (4462 proteins detected) (Homo sapiens, UniProt Q9BX40), sequence (Q9BX40 whole entry): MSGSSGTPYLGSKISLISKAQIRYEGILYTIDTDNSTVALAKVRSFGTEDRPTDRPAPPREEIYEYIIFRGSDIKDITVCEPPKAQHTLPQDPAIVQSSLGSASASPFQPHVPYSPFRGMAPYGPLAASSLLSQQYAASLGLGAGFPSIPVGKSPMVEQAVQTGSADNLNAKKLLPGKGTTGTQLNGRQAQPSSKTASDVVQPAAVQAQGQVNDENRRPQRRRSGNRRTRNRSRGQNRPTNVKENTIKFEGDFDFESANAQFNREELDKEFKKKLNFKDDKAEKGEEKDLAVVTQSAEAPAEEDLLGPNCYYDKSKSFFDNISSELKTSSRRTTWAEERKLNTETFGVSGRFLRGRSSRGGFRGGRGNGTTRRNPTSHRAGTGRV
proteins of U3A human fibrosarcoma cells (4462 proteins detected) (Homo sapiens, UniProt Q9UIS9), sequence (Q9UIS9 whole entry): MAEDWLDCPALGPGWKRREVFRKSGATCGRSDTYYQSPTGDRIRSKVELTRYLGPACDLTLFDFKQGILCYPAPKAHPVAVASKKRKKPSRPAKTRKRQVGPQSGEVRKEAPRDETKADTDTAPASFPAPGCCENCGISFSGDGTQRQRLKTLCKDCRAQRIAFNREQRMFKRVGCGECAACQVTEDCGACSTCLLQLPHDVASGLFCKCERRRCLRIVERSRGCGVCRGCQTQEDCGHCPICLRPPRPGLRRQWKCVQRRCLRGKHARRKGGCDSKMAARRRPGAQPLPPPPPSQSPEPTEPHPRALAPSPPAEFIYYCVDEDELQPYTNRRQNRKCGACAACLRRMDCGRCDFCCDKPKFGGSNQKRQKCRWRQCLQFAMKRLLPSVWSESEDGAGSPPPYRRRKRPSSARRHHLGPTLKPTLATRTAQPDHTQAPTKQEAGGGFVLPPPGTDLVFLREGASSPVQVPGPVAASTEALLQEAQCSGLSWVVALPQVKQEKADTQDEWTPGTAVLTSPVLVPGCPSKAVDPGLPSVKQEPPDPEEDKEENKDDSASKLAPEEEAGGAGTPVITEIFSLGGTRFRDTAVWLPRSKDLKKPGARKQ
proteins of U3A human fibrosarcoma cells (4462 proteins detected) (Homo sapiens, UniProt O75792), sequence (O75792 whole entry): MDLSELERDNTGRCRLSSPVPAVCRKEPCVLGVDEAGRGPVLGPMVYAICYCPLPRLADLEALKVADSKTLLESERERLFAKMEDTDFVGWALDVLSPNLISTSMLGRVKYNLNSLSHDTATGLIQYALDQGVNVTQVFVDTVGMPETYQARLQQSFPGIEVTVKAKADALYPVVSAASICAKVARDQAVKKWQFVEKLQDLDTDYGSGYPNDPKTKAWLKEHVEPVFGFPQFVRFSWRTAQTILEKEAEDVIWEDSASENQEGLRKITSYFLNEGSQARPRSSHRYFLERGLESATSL
proteins of U3A human fibrosarcoma cells (4462 proteins detected) (Homo sapiens, UniProt Q9H4E7), sequence (Q9H4E7 whole entry): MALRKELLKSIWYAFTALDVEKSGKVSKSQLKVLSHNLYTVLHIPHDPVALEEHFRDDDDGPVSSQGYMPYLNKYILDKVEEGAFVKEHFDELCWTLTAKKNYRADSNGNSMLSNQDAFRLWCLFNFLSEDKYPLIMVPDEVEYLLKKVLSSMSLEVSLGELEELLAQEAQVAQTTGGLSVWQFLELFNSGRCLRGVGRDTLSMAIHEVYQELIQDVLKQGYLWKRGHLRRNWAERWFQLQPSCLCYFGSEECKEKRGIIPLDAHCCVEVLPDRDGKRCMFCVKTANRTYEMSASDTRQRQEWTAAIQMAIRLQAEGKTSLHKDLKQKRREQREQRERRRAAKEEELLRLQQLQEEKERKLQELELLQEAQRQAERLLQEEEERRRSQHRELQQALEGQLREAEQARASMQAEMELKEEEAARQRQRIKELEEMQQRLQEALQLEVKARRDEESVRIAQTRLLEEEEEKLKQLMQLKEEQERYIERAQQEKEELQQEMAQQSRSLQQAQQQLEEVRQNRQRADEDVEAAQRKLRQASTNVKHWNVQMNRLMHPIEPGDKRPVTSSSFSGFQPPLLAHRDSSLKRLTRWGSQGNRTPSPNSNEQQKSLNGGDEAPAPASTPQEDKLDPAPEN
proteins of U3A human fibrosarcoma cells (4462 proteins detected) (Homo sapiens, UniProt Q06323), sequence (Q06323 whole entry): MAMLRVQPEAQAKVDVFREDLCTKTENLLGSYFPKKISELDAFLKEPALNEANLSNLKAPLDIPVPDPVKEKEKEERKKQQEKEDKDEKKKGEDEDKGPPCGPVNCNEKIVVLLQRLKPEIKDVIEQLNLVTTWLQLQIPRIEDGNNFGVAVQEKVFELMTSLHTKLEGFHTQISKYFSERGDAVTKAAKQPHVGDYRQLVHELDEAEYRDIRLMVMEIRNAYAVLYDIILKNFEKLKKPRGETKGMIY

Question: How did the “Log2 (PYR/DMSO), KIAA1598” value [1] turn out when `CCc1nc(N)nc(N)c1-c1ccc(Cl)cc1` [pyrimethamine] was run?
Answer: The value was -0.28.

Question: And the “Log2 (PYR/DMSO)” value [2]?
Answer: Its value is 0.16.

Question: And the “Log2 (PYR/DMSO)” value [3]?
Answer: Its value is 0.14.

Question: And the “Log2 (PYR/DMSO)” value [4]?
Answer: Its value is 0.16.

Question: What about the “Log2 (PYR/DMSO)” value [5] of the same compound?
Answer: Its value is 0.18.

Question: What about the “Log2 (PYR/DMSO)” value [6] of the same compound?
Answer: The value was 0.18.

Question: And the “Log2 (PYR/DMSO)” value [7]?
Answer: The value was 0.15.

Question: And the “Log2 (PYR/DMSO), ZNF143” value [8]?
Answer: Its value is -0.16.

Question: What about the “Log2 (PYR/DMSO)” value ([9]; U3A cells) of the same compound?
Answer: The value was -0.03.

Question: What about the “Log2 (PYR/DMSO), PPIA” value ([9]; U3A, 10 μM, 2 h) of the same compound?
Answer: The value was -0.14.

Question: What about the “Log2 (PYR/DMSO)” value [10] of the same compound?
Answer: The value was 0.14.

Question: What about the “Log2 (PYR/DMSO)” value [11] of the same compound?
Answer: Its value is 0.18.

Question: And the “Log2 (PYR/DMSO)” value [12]?
Answer: Its value is 0.18.

Question: What about the “Log2 (PYR/DMSO)” value [13] of the same compound?
Answer: Its value is -0.04.

Question: What about the “Log2 (PYR/DMSO), CEP85L” value [14] of the same compound?
Answer: Its value is -0.24.

Question: What about the “Log2 (PYR/DMSO)” value [15] of the same compound?
Answer: Its value is 0.13.

Question: What about the “Log2 (PYR/DMSO)” value [16] of the same compound?
Answer: Its value is 0.18.

Question: What about the “Log2 (PYR/DMSO), FAM162A” value [17] of the same compound?
Answer: Its value is -0.37.

Question: And the “Log2 (PYR/DMSO)” value [18]?
Answer: Its value is -0.04.

Question: What about the “Log2 (PYR/DMSO)” value [19] of the same compound?
Answer: The value was 0.14.

Question: And the “Log2 (PYR/DMSO), LSM14B” value [20]?
Answer: The value was -0.17.

Question: And the “Log2 (PYR/DMSO)” value [21]?
Answer: Its value is -0.03.

Question: What about the “Log2 (PYR/DMSO)” value [22] of the same compound?
Answer: Its value is 0.22.

Question: And the “Log2 (PYR/DMSO)” value [23]?
Answer: The value was -0.04.

Question: And the “Log2 (PYR/DMSO)” value [24]?
Answer: The value was -0.04.

Question: What about the “Log2 (PYR/DMSO)” value [25] of the same compound?
Answer: Its value is 0.19.

Question: And the “Log2 (PYR/DMSO)” value [26]?
Answer: The value was -0.05.

Question: What about the “Log2 (PYR/DMSO), ING1” value [27] of the same compound?
Answer: Its value is -0.22.

Question: What about the “Log2 (PYR/DMSO)” value [28] of the same compound?
Answer: Its value is -0.04.

Question: What about the “Log2 (PYR/DMSO)” value [29] of the same compound?
Answer: Its value is -0.04.

From PMC8800111 (The Journal of Biological Chemistry, 2021)
